Patent US11737991B2, “Eutectic formulations of cyclobenzaprine hydrochloride and amitriptyline hydrochloride” (TONIX PHARMA HOLDINGS LIMITED, priority 2013, dated 2023)
“Also recorded” adds a separate entry of the source. Counter-ions that a name gives are not always drawn.

Tests used:
Format in all cases: physicochemical
[1] = DSC compatibility of excipients with Cyclobenzaprine HCl (Example 1); settings: for Excipient reactions with API, Mixture 1:1: 1:1 API:excipient, ground in agate mortar
Description: Thermal analytical techniques were used to assess the compatibility of a drug product (tablet) containing Cyclobenzaprine HCl (API). The compatibility assessment was carried out between the API and a number of possible excipients in a 1:1 ratio. Based on the thermal events recorded for each component and for the mixtures, the analyses were carried out by investigating the peaks recorded by differential scanning calorimetry (DSC) in mixture between API and the excipients. Differences in thermal profiles between the single compound and the related mixture obtained after milling the products in an agate mortar were evaluated. Stability and compatibility also were also assessed on the final drug product after stress conditions at 40° C. and 50° C. for one month.
A “formulation ratio” mixture was made with the following composition: 2.40 mg Cyclobenzaprine HCl, 31.55 mg Mannitol and Maize starch, 2.00 Crospovidone, 0.50 mg colloidal silica, 0.050 mg Sodium Stearyl Fumarate, and 1.05 Potassium hydrogen phosphate.
Aliquots of API and each excipient were weighed in a ratio of 1:1 (unless specified otherwise) and ground in an agate mortar. The homogeneous mixtures then were analyzed.
The DSC heating curves were obtained with a TA 821 DSC Mettler instrument under the following conditions:
(§1) Ambient: Nitrogen 30 mL/min
(§2) Sample holder: normal open aluminum pan
(§3) Temperature range: from 25° C. to 250° C.
(§4) Instrument calibration: Indium sample purity 99.999%

[2] = DSC compatibility of excipients with Amitriptyline HCl (Example 4); settings: Amitriptyline HCl:excipient 1:1, milled in agate mortar
Description: Thermal analytical techniques were used to assess the compatibility of the drug product Amitriptyline HCl. The compatibility assessment was carried out between the API and the excipients in a 1:1 ratio. On the basis of thermal events recorded for each component and for the mixtures, the analyses were carried out by investigating the peaks recorded by DSC in mixtures between API and the excipients. Differences in thermal profiles between the single compound and the related mixtures were obtained after milling the products in an agate mortar.

[3] = DSC, FT-IR/ATR and XRPD compatibility of excipients with Cyclobenzaprine HCl, mixed (A) and milled (B) 1:1 mixtures (Example 2); settings: for Type of interaction between excipient and API (summary): 1:1 mixtures, mixed and milled
Description: As described above, thermal analytical techniques were further used to assess the compatibility of a drug product (tablet) containing Cyclobenzaprine HCl (API). The compatibility assessment was carried out between the API and additional excipients in a 1:1 ratio. The 1:1 APT-excipient mixtures were formed in two different ways: first, by mixing only, and second, by strong milling in an agate mortar. The thermal behavior recorded in the two different mixtures were compared with those of the single components. On the basis of thermal events recorded for each component and for the mixtures, the analyses were carried out by investigating the meanings of the peaks recorded by differential scanning calorimetry (DSC) in mixtures between the API and the excipients. Furthermore, in order to define the nature of the interaction, the Fourier Transform Infra Red Spectroscopy with Total Attenuated Reflectance (FT-IR/ATR) and X-ray powder diffraction (XRPD) of some samples (API, excipient, and mixed and milled mixtures) was carried out and compared.
Aliquots of API and each excipient were weighed in a ratio of 1:1 and ground in an agate mortar. Then, the homogeneous mixtures were analyzed. These sample mixtures were labeled “B”, while the mechanical-only mixtures were labeled “A.”
The DSC heating curves were obtained by TA 821 DSC Mettler instrument under the following conditions:
as §1, §2, §3, §4
The FT-IR spectra were collected with a Perkin Elmer spectrum Two instrument with air as background and 4 cm-1 resolution.
X-ray powder diffraction (XRPD) tests were performed with the ULTIMA IV instrument (Rigaku), laying the sample on a static sample holder. The X-ray focusing slit has a variable width, interlocked with the q value. The X-ray tube has a Copper target, with a current intensity of 40 mA and a voltage of 40 kV. Radiation was generated by the Cockcroft-Walton method, and was constituted by Kα1 (1.540562 Å) and Kα2 (1.544398 Å). The analytical conditions were:
Fixed Time; sampling width 0.02 deg, scanning rate 1.3 s/step, 2 q range 3.35 deg and sample holder; amorphous glass equiangular 9200/2G, 0.2 mm deep. The sample was pressed with a glass plate.

[4] = XRPD of binary Cyclobenzaprine HCl-mannitol mixtures (Example 3); settings: binary mixtures 30-90% API, no thermal treatment
Description: In order to confirm the eutectic formation and to characterize its physical properties, several binary mixtures at different ratios of API-excipient were prepared and analyzed by DSC and by X-ray powder diffraction (XRPD). The mixtures were obtained by gently milling in agate mortar of micronized Cyclobenzaprine HCl and mannitol, in order to obtain homogeneous distribution of the particles. For each DSC heating curve, the onset temperature and the enthalpy were evaluated both for the eutectic contribute and for the excess of component. The recorded values were plotted and a phase diagram between the two components was obtained with a characteristic profile of phase diagrams of eutectic mixtures. Mixtures also were investigated by XRPD and compared with the patterns of pure components. […] Aliquots of Cyclobenzaprine HCl API and Mannitol were weighed in the ratios described below and ground in an agate mortar, and the homogeneous mixtures subsequently analyzed. X-ray powder diffraction (XRPD) tests were performed with a ULTIMA IV (Rigaku) instrument, laying the sample on a static sample holder. […] The radiation generated by the Cockcroft-Walton method is constituted by Kα1 (1.540562 Å) and Kα2 (1.544398 Å). The analytical conditions were as follows: Fixed Time: Sampling width, 0.02 deg; Scanning rate, 1.0 s/step […] Sample holder: amorphous glass—equiangular 9200/2G, 0.2 mm deep. […]

[5] = Dissolution test, USP paddle, pyrophosphate buffer pH 4.5; settings: pH 4.5, free base still present and does not go into solution
Description: To test the dissolution properties of the 6 mannitol eutectic, dissolution tests were carried out with a Copley DIS 6000 instrument under the following conditions: Apparatus: USP Paddle RPM: 50 Medium: Pyrophosphate buffer 0.5% pH=4.5±0.05 Additive: Methocel 0.3% Vessel volume: 300 mL Temperature: 37±0.5° C. Sampling time: 1, 2, 5, 10, 20, 30, and 60 min, then each hour until 6 hours. The sampling solutions were diluted 1 to 50 mL and then 1 to 50 mL with medium and submitted to UV analysis with UV ([…]) under the following conditions: λ max: 224 nm Cuvette: […] Blank: medium

[6] = listed as Potassium phosphate bibasic
[7] = listed as Sodium Stearyl fumarate, fumarate

O=P([O-])([O-])O.[K+].[K+] [Potassium phosphate dibasic, dipotassium hydrogen phosphate]
Excipient reactions with API, Mixture 1:1 [1]: Acid - base interaction
Excipient reactions with API, Mixture 1:1 [1, 6]: chemical interaction (acid-base); also recorded: chemical (acid-base) interaction
Excipient reactions with API, Mixture in formulation ratio [1]: Low chemical
Excipient reactions with API, Mixture in formulation ratio ([1]; listed as K2HPO4): small interaction
Excipient reactions with API, Mixture in formulation ratio [1, 6]: chemical (acid-base) interaction

Sodium Phosphate dodecahydrate
Interactions between API and excipients, Mixture in formulation (1:1 ratio) [2]: physical interaction

OC[C@@H](O)[C@@H](O)[C@H](O)[C@H](O)CO [Mannitol]
Type of interaction between excipient and API (summary) [3]: formation of a eutectic
Interaction between API and mannitol by XRPD [4]: no adduct formation, only a physical eutectic formation; also recorded: no adduct interaction occurred

OC[C@@H](O)[C@@H](O)[C@H](O)[C@@H](O)CO [Sorbitol]
Type of interaction between excipient and API (summary) [3]: physical interaction

CN(C)CCC=C1c2ccccc2C=Cc2ccccc21 [Cyclobenzaprine HCl, 3-(5H-dibenzo[a,d]cyclohepten-5-ylidene)-N,N-dimethyl-1-propanamine]
Cyclobenzaprine dissolution [5]: < 100%

O=C([O-])CC(O)(CC(=O)[O-])C(=O)[O-].[Na+].[Na+].[Na+] [Tri Sodium Citrate anhydrous, Trisodium citrate anhydrous]
Nature of interaction by FT-IR/ATR ([3]; 1:1 mixture, room temperature, no thermal treatment): no chemical acid-base reaction had occurred
Type of interaction between excipient and API (summary) [3]: only physical

CCCCCCCCCCCCCCCCCCOC(=O)/C=C/C(=O)[O-].[Na+] [Sodium stearyl fumarate]
Excipient reactions with API, Mixture 1:1 ([1]; fumarate): Physical interaction
Excipient reactions with API, Mixture 1:1 [1, 7]: small physical interaction
Excipient reactions with API, Mixture in formulation ratio ([1]; fumarate): No interaction
Excipient reactions with API, Mixture in formulation ratio [1, 7]: this incompatibility disappears
